Reference: ChEMBL document CHEMBL4145665, “Structure-Activity Relationship of Novel and Selective Biaryl-Chroman GPR40 AgoPAMs” (ACS Med Chem Lett, 2018)

Key:
[1] = target: T1, Free fatty acid receptor 1 (Homo sapiens, UniProt O14842); assay: Agonist activity at recombinant human GPR40 expressed in HEK293 cells assessed as increase in IP1 accumulation measured after 60 mins by HTRF assay; type: functional, cell-based
[2] = target: T1, Free fatty acid receptor 1; assay: Agonist activity at recombinant human GPR40 expressed in HEK293 cells assessed as increase in IP1 accumulation measured after 60 mins by HTRF assay relative to AM-1638; type: functional, cell-based
[3] = target: T1, Free fatty acid receptor 1; assay: Agonist activity at recombinant human GPR40 expressed in HEK293 cells assessed as increase in IP1 accumulation measured after 60 mins in presence of 100% human serum by HTRF assay relative to AM-1638; type: functional, cell-based
[4] = target: T1, Free fatty acid receptor 1; assay: Agonist activity at recombinant human GPR40 expressed in HEK293 cells assessed as increase in IP1 accumulation measured after 60 mins in presence of 100% human serum by HTRF assay; type: functional, cell-based
[5] = tested on: Rattus norvegicus; assay: Antidiabetic activity in Sprague-Dawley rat assessed as inhibition of blood glucose AUC at 3 mg/kg, po treated prior to dextrose challenge and measured after 20 to 60 mins by IPGTT relative to control; type: functional; settings: for inhibition in vivo at 3 mg/kg: Rattus norvegicus, Sprague-Dawley, po
[6] = target: Free fatty acid receptor 1 (Rattus norvegicus, UniProt Q8K3T4); assay: Agonist activity at recombinant rat GPR40 expressed in CHOK1 cells assessed as increase in IP1 accumulation measured after 60 mins by HTRF assay; type: functional, cell-based
[7] = Oral bioavailability in Wistar-Han rat at 2 mg/kg administered as single dose; type: ADME, organism-based; settings: in vivo
[8] = Volume of distribution at steady state in Wistar-Han rat at 1 mg/kg, iv or 2 mg/kg, po administered as single dose; type: ADME, organism-based; settings: in vivo, read-out: Vdss
[9] = Lipophilicity, log D of the compound at pH 7 at 100 uM by HPLC method; type: physicochemical; settings: buffer
[10] = target: T2, Free fatty acid receptor 4 (Homo sapiens, UniProt Q5NUL3); assay: Agonist activity at GPR120 (unknown origin); type: functional
T2 sequence (Q5NUL3 whole entry): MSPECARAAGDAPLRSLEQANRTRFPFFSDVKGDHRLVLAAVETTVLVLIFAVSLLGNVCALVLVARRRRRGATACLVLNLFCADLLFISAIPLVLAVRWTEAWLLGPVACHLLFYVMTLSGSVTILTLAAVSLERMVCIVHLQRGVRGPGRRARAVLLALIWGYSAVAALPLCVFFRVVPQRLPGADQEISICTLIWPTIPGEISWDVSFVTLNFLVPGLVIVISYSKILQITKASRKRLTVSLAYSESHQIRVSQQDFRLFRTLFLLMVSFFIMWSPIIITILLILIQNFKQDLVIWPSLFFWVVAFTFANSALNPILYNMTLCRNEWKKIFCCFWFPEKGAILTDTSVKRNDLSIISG

[11] = target: Bile salt export pump (Homo sapiens, UniProt O95342); assay: Inhibition of human BSEP expressed in baculovirus infected Sf9 insect cell membrane vesicles assessed as reduction in ATP-dependent [3H]-taurocholic acid uptake; type: ADME
[12] = Fraction unbound in Wistar-Han rat plasma at 1 mg/kg, iv or 2 mg/kg, po administered as single dose; type: ADME, organism-based
[13] = Effective half life in Wistar-Han rat at 1 mg/kg, iv or 2 mg/kg, po administered as single dose; type: ADME, organism-based; settings: in vivo, read-out: t1/2eff (converted)
[14] = Clearance in Wistar-Han rat at 1 mg/kg, iv or 2 mg/kg, po administered as single dose; type: ADME, organism-based; settings: in vivo
[15] = tested on: Rattus norvegicus; assay: Antidiabetic activity in po dosed Goto Kakizaki rats assessed as reduction in blood glucose excursion pretreated for 1 hr followed by dextrose challenge measured after 20 to 60 mins by OGTT method; type: functional; settings: read-out: MED
[16] = tested on: Rattus norvegicus; assay: Antidiabetic activity in po dosed Goto Kakizaki rats assessed as plasma concentration required for reduction in blood glucose excursion at MED pretreated for 1 hr followed by dextrose challenge measured 3 hrs post dose by OGTT; type: functional, organism-based
[17] = target: Free fatty acid receptor 1 (Rattus norvegicus) (UniProt Q8K3T4); assay: Agonist activity at recombinant rat GPR40 expressed in CHOK1 cells assessed as increase in IP1 accumulation measured after 60 mins by HTRF assay relative to AM-1638; type: functional, cell-based
[18] = tested on: Rattus norvegicus; assay: Antidiabetic activity in Goto Kakizaki rats assessed as plasma concentration required for reduction in blood glucose excursion at 0.3 mg/kg, po pretreated for 1 hr followed by dextrose challenge measured 3 hrs post dose by OGTT; type: functional, organism-based
[19] = tested on: Rattus norvegicus; assay: Antidiabetic activity in Goto Kakizaki rats assessed as plasma concentration required for reduction in blood glucose excursion at 30 mg/kg, po pretreated for 1 hr followed by dextrose challenge measured 3 hrs post dose by OGTT; type: functional, organism-based
[20] = tested on: Rattus norvegicus; assay: Antidiabetic activity in Goto Kakizaki rats assessed as plasma concentration required for reduction in blood glucose excursion at 10 mg/kg, po pretreated for 1 hr followed by dextrose challenge measured 3 hrs post dose by OGTT; type: functional, organism-based
[21] = tested on: Rattus norvegicus; assay: Antidiabetic activity in Goto Kakizaki rats assessed as plasma concentration required for reduction in blood glucose excursion at 3 mg/kg, po pretreated for 1 hr followed by dextrose challenge measured 3 hrs post dose by OGTT; type: functional, organism-based
[22] = tested on: Rattus norvegicus; assay: Antidiabetic activity in Goto Kakizaki rats assessed as plasma concentration required for reduction in blood glucose excursion at 1 mg/kg, po pretreated for 1 hr followed by dextrose challenge measured 3 hrs post dose by OGTT; type: functional, organism-based

Chain of Free fatty acid receptor 1 (Rattus norvegicus) (Q8K3T4 whole entry): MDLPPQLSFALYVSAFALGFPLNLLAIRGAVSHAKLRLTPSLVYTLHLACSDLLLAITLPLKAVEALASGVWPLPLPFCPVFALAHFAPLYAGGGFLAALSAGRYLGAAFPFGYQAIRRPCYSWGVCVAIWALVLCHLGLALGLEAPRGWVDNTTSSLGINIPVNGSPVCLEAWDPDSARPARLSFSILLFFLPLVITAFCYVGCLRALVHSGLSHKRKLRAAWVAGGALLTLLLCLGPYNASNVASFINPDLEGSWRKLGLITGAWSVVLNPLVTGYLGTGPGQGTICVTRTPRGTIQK
T1 sequence (O14842 whole entry): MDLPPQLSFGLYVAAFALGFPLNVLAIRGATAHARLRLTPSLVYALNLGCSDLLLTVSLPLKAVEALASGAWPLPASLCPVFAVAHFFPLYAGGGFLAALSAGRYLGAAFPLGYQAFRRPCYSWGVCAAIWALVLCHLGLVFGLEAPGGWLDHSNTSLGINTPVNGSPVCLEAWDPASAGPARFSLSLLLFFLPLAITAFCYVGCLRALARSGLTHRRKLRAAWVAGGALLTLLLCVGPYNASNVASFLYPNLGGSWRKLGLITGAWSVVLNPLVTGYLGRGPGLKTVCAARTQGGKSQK
Chain of Free fatty acid receptor 1 (Rattus norvegicus, UniProt Q8K3T4) (Q8K3T4 whole entry): as the sequence (Q8K3T4 whole entry) above
Chain of Bile salt export pump (O95342 whole entry): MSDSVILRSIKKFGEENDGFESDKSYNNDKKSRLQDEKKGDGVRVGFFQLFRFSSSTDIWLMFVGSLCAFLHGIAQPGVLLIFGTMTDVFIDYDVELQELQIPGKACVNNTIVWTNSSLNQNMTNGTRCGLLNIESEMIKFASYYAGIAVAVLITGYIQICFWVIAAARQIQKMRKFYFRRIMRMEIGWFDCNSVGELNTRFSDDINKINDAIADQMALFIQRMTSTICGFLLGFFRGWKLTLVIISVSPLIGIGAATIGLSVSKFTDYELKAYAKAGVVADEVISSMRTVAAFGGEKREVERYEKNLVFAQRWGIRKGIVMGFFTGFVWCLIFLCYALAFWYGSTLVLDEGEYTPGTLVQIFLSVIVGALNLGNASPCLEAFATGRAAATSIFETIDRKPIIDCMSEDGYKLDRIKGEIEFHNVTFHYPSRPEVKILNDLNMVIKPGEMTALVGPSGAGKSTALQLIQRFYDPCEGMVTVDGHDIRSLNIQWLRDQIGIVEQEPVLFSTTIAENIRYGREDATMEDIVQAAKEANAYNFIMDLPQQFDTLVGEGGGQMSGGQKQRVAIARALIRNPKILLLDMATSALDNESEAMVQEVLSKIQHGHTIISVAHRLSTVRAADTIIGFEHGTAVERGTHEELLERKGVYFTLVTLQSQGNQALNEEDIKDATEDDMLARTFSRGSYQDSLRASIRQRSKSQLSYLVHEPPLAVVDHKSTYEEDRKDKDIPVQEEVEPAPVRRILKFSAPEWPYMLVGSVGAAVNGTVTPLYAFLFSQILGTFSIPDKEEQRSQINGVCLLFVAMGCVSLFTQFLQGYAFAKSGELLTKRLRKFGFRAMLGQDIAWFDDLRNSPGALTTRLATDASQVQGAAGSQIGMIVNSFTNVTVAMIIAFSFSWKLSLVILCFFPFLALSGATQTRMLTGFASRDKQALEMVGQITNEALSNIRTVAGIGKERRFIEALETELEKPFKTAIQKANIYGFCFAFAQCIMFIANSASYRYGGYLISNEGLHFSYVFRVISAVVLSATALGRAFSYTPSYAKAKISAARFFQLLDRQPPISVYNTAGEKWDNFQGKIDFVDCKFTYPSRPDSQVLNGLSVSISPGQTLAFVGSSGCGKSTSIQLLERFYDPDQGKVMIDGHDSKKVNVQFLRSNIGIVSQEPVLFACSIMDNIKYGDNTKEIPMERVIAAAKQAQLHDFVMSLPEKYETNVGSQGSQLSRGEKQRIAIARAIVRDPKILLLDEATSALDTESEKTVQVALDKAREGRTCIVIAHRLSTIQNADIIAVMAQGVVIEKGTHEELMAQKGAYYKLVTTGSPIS

| SMILES | EC50 [1] | max activation [2] | max activation [3] | EC50 [4] | logD at 100 µM [9] | inhibition (INH) [5] | also measured |
| --- | --- | --- | --- | --- | --- | --- | --- |
| O=C(O)C[C@H](c1ccc2c(c1)OC(c1ccc(-c3cccc(OC(F)(F)F)c3)cc1)CC2)C1CC1 (mixture of isomers) | 0.934 µM | 385% | 73% | 6.43 µM |  |  |  |
| O=C(O)C[C@H](c1ccc2c(c1)OC(c1ccc(-c3cccc(O)c3)cc1)CC2)C1CC1 (mixture of isomers) | 0.391 µM | 422% | 231% | 4.58 µM |  |  |  |
| O=C(O)C[C@H](c1ccc2c(c1)OC(c1ccc(-c3ccccc3)cc1)CC2)C1CC1 (single isomer, unassigned) | 0.133 µM | 452% | 57% | 5.44 µM |  |  |  |
| COc1cccc(-c2ccc(C3CCc4ccc([C@@H](CC(=O)O)C5CC5)cc4O3)cc2)c1 (single isomer, unassigned) | 0.023 µM | 394% | 223% | 4.03 µM |  |  |  |
| COc1ccc(F)c(-c2ccc(C3CCc4ccc([C@H](C5CC5)[C@H](C)C(=O)[O-])cc4O3)cc2)c1.[Na+] (stereo in doubt; 14) | 0.0011 µM |  |  | 0.146 µM | 2.94 | 103% | EC50 [6]: 0.0012 µM; bioavailability [7]: 50%; Vd [8]: 0.41 L/kg; EC50 [10]: > 10 µM; IC50 [11]: 1.4 µM; fraction unbound [12]: 0.005; half-life [13]: 3.5 h; clearance [14]: 3.1 mL/min/kg; minimal effective dose [15]: 10 mg/kg |
| COc1ccc(F)c(-c2ccc(C3CCc4ccc([C@H](C5CC5)[C@H](C)C(=O)O)cc4O3)cc2)c1 (stereo in doubt; 14) |  | > 179% | > 179% |  |  |  | Cp [16]: 3 µM; max activation [17]: > 370% |
| COc1ccc(F)c(-c2ccc(C3CCc4ccc([C@H](C5CC5)[C@H](C)C(=O)O)cc4O3)cc2)c1 (stereo in doubt; 15) | 0.0026 µM |  |  | 0.127 µM |  |  | inhibition in vivo at 3 mg/kg [5]: 102% |
| COc1ccc(F)c(-c2ccc(C3CCc4ccc([C@H](C5CC5)[C@H](C)C(=O)[O-])cc4O3)nc2)c1.[Na+] (stereo in doubt; 16) |  |  |  |  | 2.25 | 99% | EC50 [6]: 0.0023 µM; EC50 [10]: > 10 µM; IC50 [11]: 0.3 µM; fraction unbound [12]: 0.003; minimal effective dose [15]: 30 mg/kg |
| COc1ccc(F)c(-c2ccc(C3CCc4ccc([C@H](C5CC5)[C@H](C)C(=O)O)cc4O3)nc2)c1 (stereo in doubt; 17) |  |  |  |  |  |  | inhibition in vivo at 3 mg/kg [5]: 100% |
| COc1cc(-c2ccc(C3CCc4ccc([C@H](C5CC5)[C@H](C)C(=O)[O-])cc4O3)cc2)ccn1.[Na+] (stereo in doubt; 22) |  |  |  | 0.382 µM | 2.3 | 49% |  |
| COc1cc(-c2ccc(C3CCc4ccc([C@H](C5CC5)[C@H](C)C(=O)[O-])cc4O3)cc2)ccn1.[Na+] (stereo in doubt; 23) |  |  |  | 0.521 µM |  | 7% |  |
| COc1cc(-c2ccc(C3CCc4ccc([C@H](C5CC5)[C@H](C)C(=O)[O-])cc4O3)c(F)c2)c(F)cn1.[Na+] (stereo in doubt; 26) | < 0.0002 µM |  |  | 0.036 µM | 2.97 | 72% |  |
| COc1cc(-c2ccc(C3CCc4ccc([C@H](C5CC5)[C@H](C)C(=O)[O-])cc4O3)c(F)c2)c(F)cn1.[Na+] (stereo in doubt; 27) |  |  |  | 0.328 µM |  | 38% |  |
| COc1cc(-c2cnc(C3CCc4ccc([C@H](C5CC5)[C@H](C)C(=O)O)cc4O3)c(F)c2)c(F)cn1 (stereo in doubt; 30) |  |  |  | 0.382 µM | 2.36 |  |  |
| COc1cc(-c2ccc(C3CCc4ccc([C@H](C5CC5)[C@H](C)C(=O)O)cc4O3)nc2)ccn1 (stereo in doubt; 32) |  |  |  | 0.838 µM | 1.74 |  |  |

The next lines start with results.

| EC50 [1] | max activation [2] | max activation [3] | EC50 [4] | SMILES | logD at 100 µM [9] | inhibition (INH) [5] | also measured |
| --- | --- | --- | --- | --- | --- | --- | --- |
| 0.007 µM | 359% | 188% | 1.23 µM | COc1ccc(F)c(-c2ccc(C3CCc4ccc([C@@H](CC(=O)O)C5CC5)cc4O3)cc2)c1 (mixture of isomers) |  |  |  |
| 0.0082 µM | > 179% | > 179% | 0.92 µM | COc1cc(-c2ccc(C3CCc4ccc([C@H](C5CC5)[C@H](C)C(=O)O)cc4O3)c(F)c2)ccn1 (mixture of isomers) |  |  | inhibition in vivo at 3 mg/kg [5]: 84% |
|  | > 179% | > 179% |  | COc1ccc(F)c(-c2ccc(C3CCc4ccc([C@H](C5CC5)[C@H](C)C(=O)O)cc4O3)nc2)c1 (stereo in doubt; 16) |  |  | Cp [16]: 13.9 µM; max activation [17]: > 370% |
| 0.024 µM |  |  | 5.33 µM | COc1ccc(F)c(-c2ccc(C3CCc4ccc([C@H](C5CC5)[C@H](C)C(=O)O)cc4O3)cn2)c1 (stereo in doubt; 18) | 2.29 |  |  |
| 0.013 µM |  |  | 2.47 µM | COc1ccc(F)c(-c2ccc(C3CCc4ccc([C@H](C5CC5)[C@H](C)C(=O)O)cc4O3)cn2)c1 (stereo in doubt; 19) |  |  |  |
| 0.0009 µM |  |  | 0.066 µM | COc1cc(-c2ccc(C3CCc4ccc([C@H](C5CC5)[C@H](C)C(=O)[O-])cc4O3)cc2)c(F)cn1.[Na+] (stereo in doubt; 20) | 2.68 | 59% |  |
| < 0.0002 µM |  |  | 0.105 µM | COc1cc(-c2ccc(C3CCc4ccc([C@H](C5CC5)[C@H](C)C(=O)[O-])cc4O3)cc2)c(F)cn1.[Na+] (stereo in doubt; 21) |  | 88% |  |
| < 0.0002 µM |  |  | 1.03 µM | COc1cc(-c2ccc(C3CCc4ccc([C@H](C5CC5)[C@H](C)C(=O)[O-])cc4O3)nc2)c(F)cn1.[Na+] (stereo in doubt; 28) | 1.98 | 102% |  |
|  | > 179% | > 179% |  | COc1cc(-c2ccc(C3CCc4ccc([C@H](C5CC5)[C@H](C)C(=O)O)cc4O3)nc2)c(F)cn1 (stereo in doubt; 29) |  |  | Cp [16]: 32 µM; Cp [18]: 0.44 µM; Cp [19]: 32 µM; Cp [20]: 11 µM; Cp [21]: 5.4 µM; max activation [17]: > 370%; Cp [22]: 2 µM |
